For the assay, the target named is T1, CCR2 (Homo sapiens, UniProt P41597).
T1 construct: chemokine expressing cells (such as THP-1 cells for CCR2 assay or MOLT-4 cells for CCR9 assay); host or cells: THP-1
T1 sequence (P41597 1-360 isoform P41597-2): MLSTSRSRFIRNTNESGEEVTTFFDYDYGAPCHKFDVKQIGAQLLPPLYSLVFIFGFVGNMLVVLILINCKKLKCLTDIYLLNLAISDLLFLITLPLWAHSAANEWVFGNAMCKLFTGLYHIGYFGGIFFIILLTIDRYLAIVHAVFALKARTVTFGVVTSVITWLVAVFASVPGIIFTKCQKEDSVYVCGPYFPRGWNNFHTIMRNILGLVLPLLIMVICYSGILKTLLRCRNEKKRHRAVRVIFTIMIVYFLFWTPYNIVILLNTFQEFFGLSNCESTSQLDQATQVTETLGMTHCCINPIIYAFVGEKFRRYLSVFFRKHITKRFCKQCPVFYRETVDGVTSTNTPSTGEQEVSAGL
The experiment in a line: CCR2 activity in one of the chemotaxis, binding or calcium mobilization assays. As to conditions: binding or calcium mobilization assays (THP-1 cells, MCP-1). It counts as cell-based. The method, then: THP-1 cells and MOLT-4 cells were obtained from the American Type Culture Collection (Manassas, Va.) and cultured in RPMI tissue culture medium supplemented with 10% fetal calf serum (FCS) in a humidified 5% CO2 incubator at 37° C. Recombinant human chemokine proteins MCP-1 and TECK were obtained from R&D Systems (Minneapolis, Minn.). ^125I-labeled MCP-1 protein was obtained from Amersham (Piscataway, N.J.). ChemoTX® chemotaxis microchambers were purchased from Neuro Probe (Gaithersburg, Md.). CyQUANT® cell proliferation kits were purchased from Molecular Probes (Eugene, Oreg.). Calcium indicator dye Fluo-4 AM was purchased from Molecular Devices (Mountain View, Calif.).
Conventional migration assay was used to determine the efficacy of potential receptor antagonists in blocking migration mediated through chemokines (such as CCR2 or CCR9). This assay was routinely performed using the ChemoTX® microchamber system with a 5-μm pore-sized polycarbonate membrane. To begin such an assay, chemokine expressing cells (such as THP-1 cells for CCR2 assay or MOLT-4 cells for CCR9 assay) were harvested by centrifugation of cell suspension at 1000 RPM on a GS-6R Beckman centrifuge. The cell pellet was resuspended in chemotaxis buffer (HBSS with 0.1% BSA) at 10×10^6 cells/mL for CCR2 assay (5×10^6 cells/mL for CCR9 assay). Test compounds at desired concentrations were prepared from 10 mM stock solutions by serial dilutions in chemotaxis buffer. An equal volume of cells and compounds were mixed and incubated at room temperature for 15 minutes. Afterwards, 20 μL of the mixture was transferred onto the porous membrane of a migration microchamber, with 29 μL of chemokine ligand (0.1 nM chemokine MCP-1 protein for CCR2 assay or […] chemokine TECK protein for CCR9 assay) placed at the lower chamber. Following an incubation at 37° C. (90-minute for CCR2; 150-minute for CCR9), during which cells migrated […] the chemokine gradient, the assay was terminated by removing the cell drops from atop the filter. To quantify cells migrated across the membrane, 5 μL of 7× CyQUANT® solution was added to each well in the lower chamber, and the fluorescence signal measured on a Spectrafluor Plus fluorescence plate reader (TECAN, Durham, N.C.). The degree of inhibition was determined by comparing migration signals between compound-treated and untreated cells. IC50 calculation was further performed by non-linear squares regression analysis using Graphpad Prism (Graphpad Software, San Diego, Calif.).
Calcium flux assay measures an increase in intracellular calcium following ligand-induced receptor activation. In the screen of chemokine antagonists, it was used as a secondary assay carried out on a FLIPR® machine (Molecular Devices, Mountain View, Calif.). To begin an assay, chemokine expressing cells (such as THP-1 cells for CCR2 assay or MOLT-4 cells for CCR9 assay) were harvested by centrifugation of cell suspension, and resuspended to 1.5×10^6 cells/mL in HBSS (with 1% fetal calf serum). Cells were then labeled with a calcium indicator dye Fluo-4 AM for 45 minutes at 37° C. with gentle shaking. Following incubation, cells were pelletted, washed once with HBSS and resuspended in the same buffer at a density of 1.6×10^6 cells/mL. One hundred microliters of labeled cells were mixed with 10 μL of test compound at the appropriate concentrations on an assay plate. Chemokine protein (MCP-1 at a final concentration of 0.1 nM for CCR2 assay or TECK at a final concentration of 25 nM for CCR9 assay) to activate the receptor. The degree of inhibition was determined by comparing calcium signals between compound-treated and untreated cells. IC50 calculations were further performed by non-linear squares regression analysis using Graphpad Prism (Graphpad Software, San Diego, Calif.).
Ligand binding assay was used to determine the ability of potential CCR2 antagonists to block the interaction between CCR2 and its ligand MCP-1. […]
Background: Calcium assays in cells follow changes in intracellular calcium, usually with a dye or a luminescent sensor.

The record followed here is patent US7683176B2, “Triazolyl pyridyl benzenesulfonamides” (ChemoCentryx, Inc., priority 2006, dated 2010).

Turning to `CC(C)n1c(C(N)=O)nnc1-c1ncc(Cl)cc1NS(=O)(=O)c1ccc(Cl)c(C(F)(F)F)c1`, the IC50 (as a rule, the point on the concentration scale where inhibition reaches its midpoint) is below 1 µM.

As for `COc1ccc(F)cc1-n1cnnc1-c1ncc(Cl)cc1NS(=O)(=O)c1ccc(Cl)c(C(F)(F)F)c1`, the IC50 was below 1 µM.

For the molecule `O=S(=O)(Nc1cc(Cl)cnc1-c1nncn1-c1cc[nH]n1)c1ccc(Cl)c(Cl)c1`, the IC50 is below 1 µM.

With `Cn1nccc1-n1cnnc1-c1ncc(Cl)cc1NS(=O)(=O)c1ccc(Cl)c(C(F)(F)F)c1`, the IC50 is below 1 µM.

Turning to `O=C(c1nnc(-c2ncc(Cl)cc2NS(=O)(=O)c2ccc(Cl)c(C(F)(F)F)c2)n1-c1ccon1)N1CCOCC1`, the IC50 was below 1 µM.

On to `O=S(=O)(Nc1cc(Cl)cnc1-c1nnc(C(F)(F)F)n1-c1cc[nH]n1)c1ccc(Cl)c(C(F)(F)F)c1`, for which the IC50 was below 1 µM.

Take `O=S(=O)(Nc1cc(Cl)cnc1-c1nncn1-c1n[nH]cc1Br)c1ccc(Cl)c(Cl)c1`: the IC50 is below 1 µM.

With `CO[C@H]1CNC[C@@H]1n1cnnc1-c1ncc(Cl)cc1NS(=O)(=O)c1ccc(Cl)c(C(F)(F)F)c1`, the IC50 was below 1 µM.

As to `CC(C)n1c(CO)nnc1-c1ncc(Cl)cc1NS(=O)(=O)c1ccc(Cl)c(C(F)(F)F)c1`, the IC50 is below 1 µM.

Take `CC(CN(C)C)n1cnnc1-c1ncc(Cl)cc1NS(=O)(=O)c1ccc(Cl)c(C(F)(F)F)c1` (stereo not drawn): the IC50 was below 1 µM.

On to `Cc1cnc(-c2nncn2-c2cc[nH]n2)c(NS(=O)(=O)c2ccc(Cl)c(C(F)(F)F)c2)c1`, for which the IC50 is below 1 µM.

Consider `CC(C)c1nnc(-c2ncc(Cl)cc2NS(=O)(=O)c2ccc(Cl)c(C(F)(F)F)c2)n1-c1cc[nH]n1`, for which the IC50 was below 1 µM.

In the case of `CN(C)C(=O)c1nnc(-c2ncc(Cl)cc2NS(=O)(=O)c2ccc(Cl)c(C(F)(F)F)c2)n1-c1ccon1`, the IC50 is below 1 µM.

With `NC(=O)c1nnc(-c2ncc(Cl)cc2NS(=O)(=O)c2ccc(Cl)c(C(F)(F)F)c2)n1-c1ccon1`, the half-maximal inhibitory concentration (IC50) is below 1 µM.

On to `CC(C)(C)c1nnc(-c2ncc(Cl)cc2NS(=O)(=O)c2ccc(Cl)c(C(F)(F)F)c2)n1-c1cc[nH]n1`, for which the IC50 was below 1 µM.

As for `O=S(=O)(Nc1cc(Cl)cnc1-c1nnc(Br)n1-c1n[nH]cc1Br)c1ccc(Cl)c(Cl)c1`, the IC50 is below 1 µM.

Consider `O=S(=O)(Nc1cc(Cl)cnc1-c1nnc(C(F)(F)F)n1-c1ccccc1)c1ccc(Cl)c(C(F)(F)F)c1`, for which the IC50 was below 1 µM.

In the case of `O=S(=O)(Nc1cc(Cl)cnc1-c1nncn1-c1cn[nH]c1)c1ccc(Cl)c(C(F)(F)F)c1`, the IC50 was below 1 µM.

`O=S(=O)(Nc1cc(Cl)cnc1-c1nncn1C1CCNCC1)c1ccc(Cl)c(C(F)(F)F)c1`: the IC50 is below 1 µM.

On to `COCc1nnc(-c2ncc(Cl)cc2NS(=O)(=O)c2ccc(Cl)c(C(F)(F)F)c2)n1-c1cc[nH]n1`, for which the IC50 was below 1 µM.

Turning to `COCc1nnc(-c2ncc(Cl)cc2NS(=O)(=O)c2ccc(Cl)c(C(F)(F)F)c2)n1-c1ccon1`, the IC50 is below 1 µM.

Turning to `O=S(=O)(Nc1cc(Cl)cnc1-c1nnc(Br)n1-c1ccon1)c1ccc(Cl)c(C(F)(F)F)c1`, the IC50 was below 1 µM.

`Cc1ccccc1-n1cnnc1-c1ncc(Cl)cc1NS(=O)(=O)c1ccc(Cl)c(C(F)(F)F)c1`: the IC50 was below 1 µM.

`CCCn1cnnc1-c1ncc(Cl)cc1NS(=O)(=O)c1ccc(Cl)c(C(F)(F)F)c1`: the IC50 was below 1 µM.

As for `CCNC(=O)c1nnc(-c2ncc(Cl)cc2NS(=O)(=O)c2ccc(Cl)c(C(F)(F)F)c2)n1-c1ccon1`, the 50% inhibitory concentration (IC50) is below 1 µM.

`CC(C)n1c(CN(C)C)nnc1-c1ncc(Cl)cc1NS(=O)(=O)c1ccc(Cl)c(C(F)(F)F)c1`: the IC50 was below 1 µM.

On to `O=S(=O)(Nc1cc(Cl)cnc1-c1nncn1-c1n[nH]cc1Br)c1ccc(Cl)c(C(F)(F)F)c1`, for which the IC50 is below 1 µM.

Consider `CC(C)n1c(Cl)nnc1-c1ncc(Cl)cc1NS(=O)(=O)c1ccc(Cl)c(C(F)(F)F)c1`, for which the IC50 was below 1 µM.

With `CC(C)n1c(C(=O)N(C)C)nnc1-c1ncc(Cl)cc1NS(=O)(=O)c1ccc(Cl)c(C(F)(F)F)c1`, the IC50 was below 1 µM.

As for `CC(CCO)n1cnnc1-c1ncc(Cl)cc1NS(=O)(=O)c1ccc(Cl)c(C(F)(F)F)c1` (stereo not drawn), the IC50 is below 1 µM.

Turning to `Cc1n[nH]cc1-n1cnnc1-c1ncc(Cl)cc1NS(=O)(=O)c1ccc(Cl)c(C(F)(F)F)c1`, the IC50 is below 1 µM.

On to `CC(C)n1c(N)nnc1-c1ncc(Cl)cc1NS(=O)(=O)c1ccc(Cl)c(C(F)(F)F)c1`, for which the IC50 was below 1 µM.

On to `Cc1cnc(-c2nnc(C(N)=O)n2-c2ccon2)c(NS(=O)(=O)c2ccc(Cl)c(C(F)(F)F)c2)c1`, for which the IC50 is below 1 µM.

Take `NC(=O)c1nnc(-c2ncc(Cl)cc2NS(=O)(=O)c2ccc(Cl)c(Cl)c2)n1-c1ccon1`: the IC50 was below 1 µM.

As for `Cc1nnc(-c2ncc(Cl)cc2NS(=O)(=O)c2ccc(Cl)c(C(F)(F)F)c2)n1-c1n[nH]cc1Br`, the IC50 was below 1 µM.

Take `Cc1cnc(-c2nnc(C(N)=O)n2-c2ccccc2)c(NS(=O)(=O)c2ccc(Cl)c(C(F)(F)F)c2)c1`: the IC50 was below 1 µM.

Consider `O=S(=O)(Nc1cc(Cl)cnc1-c1nncn1C1CCNC1)c1ccc(Cl)c(C(F)(F)F)c1` (stereo not drawn), for which the IC50 is below 1 µM.

For `Cc1c[nH]nc1-n1cnnc1-c1ncc(Cl)cc1NS(=O)(=O)c1ccc(Cl)c(C(F)(F)F)c1`, the 50% inhibitory concentration (IC50) is below 1 µM.

For `O=S(=O)(Nc1cc(Br)cnc1-c1nncn1-c1ccon1)c1ccc(Cl)c(C(F)(F)F)c1`, the IC50 was below 1 µM.

As to `O=S(=O)(Nc1cc(Cl)cnc1-c1nncn1-c1ccon1)c1ccc(Cl)c(Cl)c1`, the IC50 was below 1 µM.

For the molecule `CCOC(=O)c1nnc(-c2ncc(Cl)cc2NS(=O)(=O)c2ccc(Cl)c(C(F)(F)F)c2)n1C(C)C`, the IC50 was below 1 µM.

For `CC(C)n1c(Br)nnc1-c1ncc(Cl)cc1NS(=O)(=O)c1ccc(Cl)c(C(F)(F)F)c1`, the IC50 is below 1 µM.

In the case of `Cc1ccc(S(=O)(=O)Nc2cc(Cl)cnc2-c2nnc(C(N)=O)n2-c2ccon2)cc1C(F)(F)F`, the IC50 is below 1 µM.

For the molecule `O=S(=O)(Nc1cc(Cl)cnc1-c1nnc(CO)n1-c1ccon1)c1ccc(Cl)c(C(F)(F)F)c1`, the IC50 was below 1 µM.

With `C[C@@H](CO)n1cnnc1-c1ncc(Cl)cc1NS(=O)(=O)c1ccc(Cl)c(C(F)(F)F)c1`, the IC50 is below 1 µM.

With `CCOC(=O)c1nnc(-c2ncc(Cl)cc2NS(=O)(=O)c2ccc(Cl)c(C(F)(F)F)c2)n1-c1ccon1`, the IC50 was below 1 µM.

With `CCN(C)C(=O)c1nnc(-c2ncc(Cl)cc2NS(=O)(=O)c2ccc(Cl)c(C(F)(F)F)c2)n1-c1ccon1`, the IC50 was below 1 µM.

As for `O=S(=O)(Nc1cc(Cl)cnc1-c1nnc(C2CC2)n1-c1cc[nH]n1)c1ccc(Cl)c(C(F)(F)F)c1`, the IC50 is below 1 µM.

Take `O=C(c1nnc(-c2ncc(Cl)cc2NS(=O)(=O)c2ccc(Cl)c(C(F)(F)F)c2)n1-c1ccon1)N1CCCC1`: the IC50 is below 1 µM.

On to `CC(C)NC(=O)c1nnc(-c2ncc(Cl)cc2NS(=O)(=O)c2ccc(Cl)c(C(F)(F)F)c2)n1-c1ccon1`, for which the IC50 was below 1 µM.

`O=S(=O)(Nc1cc(Br)cnc1-c1nncn1-c1cc[nH]n1)c1ccc(Cl)c(C(F)(F)F)c1`: the IC50 was below 1 µM.
